# Results published in patent EP0366451A2, “The use of oxidized polyamines, especially NN'-Bis-(3-propionaldehyde)-1-4-diaminobutane (sperminedialdehyde) as immunosuppressive agents” (ORTHO PHARMACEUTICAL CORPORATION, priority 1988, dated 1990).
# What was measured:
# [1] = tested on: cytosolic ALDH; test: NAD-linked cytosolic ALDH assay, L1210/CPA cells; type: biochemical, Murine; conditions: as substrate, L1210/CPA cytosol
# Method: (§1) Cultured murine leukemic cells and livers (excised from mice immediately after cervical dislocation) were homogenized in 3 volumes of ice-cold 1.15% KCl and 1 mM EDTA. The homogenate was centrifuged at 100,000 g for 45 min and the resulting supernatant was used to measure cytosolic ALDH activity. For particulate ALDH assay, the pellet (and homogenate for total ALDH) was resuspended in homogenizing buffer and treated with 0.25% Triton X-100 for 30 min at 4°C. The solubilized preparations were centrifuged at 48,000 g for 30 min and the supernatants were drawn off for ALDH determinations.
# (§2) ALDH activity was measured by monitoring the reduction of NAD or NADp for 5-6 min at […] at 37°C in DU70 spectrophotometer (Beckman). The assay mixture contained 50 mM potassium phosphate buffer, pH 7.4, 2.0 mM NAD (or NADP) and 1.0 mM EDTA. The reaction was started by adding the substrate (SDA or other aldehyde) to the prewarmed (5 min at 37°C) assay mixture containing enzyme preparation. Pyrazole (0.1 mM) was added particularly for liver enzyme, to inhibit alcohol dehydrogenase. The apparent Km and maximum velocity (Vmax) values were calculated using a Lineweaver-Burk plot based on the estimation of the slope by regression analysis. Enzyme activity was expressed as mU (nmoles/min) per mg of protein. Protein contents were determined by the Bradford method, using bovine serum albumin as the standard.
# [2] = tested on: L1210/0 cells; test: L1210/0 cell proliferation ([3H]-thymidine incorporation); type: cell-based, Murine
# Method: Murine lymphocytic leukemia cell lines, L1210/CPA and L1210/0 (als. known as Le/CPA and Le/0) were kindly provided by Dr. F. Struck, Southern Research Institute, Birmingham, AL. Cells were grown in RPMI-1640, supplemented with 10% horse serum, 100 units/ml penicillin and 100 µg/ml streptomycin. The cultures were incubated at 37°C in a humidified atmosphere with 5% CO₂ in air. Bone marrow cells were flushed from femurs of mice with RPMI-1640, using a tuberculin syringe fitted with a 25 gauge meedle. For spleen cells, spleens were removed and passed through a fine wire mesh to get a single homogenous cell suspension. In either case, cells were centrifuged, washed twice and resuspended in the drug exposure medium (see below). Cell viability was determined by trypan blue exclusion and the cell suspension was diluted to the desired concentration.
# Murine leukemic cells and bone marrow/spleen cells were treated with SDA (1 x 10^-6 M to 5 x 10⁻⁵ M) in RPMI-1640 or PBS based solution. Wherever mentioned, cells were pretreated with DEAB (10-30 µM) for 30-60 min at 37°C and then exposed to SDA.
# (§3) For [³H]-thymidine incorporation, drug or vehicle treated bone marrow or spleen cells were plated in RPMI-1640, containing 10% fetal bovine serum, 10 µM β-mercaptoethanol, 25 mM HEPES and 2 mM glutamine. Con-A (4 µg/ml and […]) was used as mitogens for bone marrow and spleen cells. Three days later, [³H]-thymidine (0.2 µCi/well) was added and cells were harvested after 12-18 hrs. L1210/CPA and L1210/0 cells (0.1 - 1 x 10⁵ cells/well were plated in RPMI-1640 containing 10% horse serum. [³H]-thymidine was added after 24 hrs and cells were filtered on GF/B filter paper for scintillation counting.
# [3] = tested on: splenic T cell; test: Concanavalin A-stimulated splenic T cell proliferation ([3H]-thymidine incorporation); type: cell-based, Mouse
# Method: Splenic cells were treated with various concentrations of SDA or an analogue for 30 min. at 37°C. Cells were washed and cultured in the presence of Concanavalin A for 3 days. [³H] Thymidine 0.1µCi/well was added and cells were harvested after 18-24 hrs.
# Mouse spleen cells were cultured for 3 days in flat bottom microtiter relates at 10⁵ cells per well in the presence of […] of Con A. 3H-thymidine (0.1 microcurie/well) was added for the last 4-6 hours of the culture period. Cells were harvested as described above.
# as §3
# [4] = tested on: BFU-E and CFU-GM colonies; test: Hemopoietic colony formation assay; type: cell-based, murine
# Method: Hemopoietic colony forming cells were cultured as described in the art by Iscove & Sieber with minor modifications. SDA/DEAB treated or vehicle treated cells were added to murine hemopoietic culture mixture with erythropoietin and conditioned medium (Terry Fox Laboratories, Vancouver, Canada). The mixture was vortexed and 1-2 ml portions (1 x 10⁵ bone marrow cells) were plated in duplicate in 35 mm plastic petri dishes (lux suspension dishes, Flow Laboratories). The culture dishes were incubated in a humidified atmosphere (95% air : 5% CO₂) at 37°C. Colonies were counted on day 8 or 10 for BFU-E, CFU-GM and CFU-mix. Colony types were confirmed with Wright/Giemsa Stain.
# [5] = tested on: ALDH; test: ALDH assay in L1210/0 cells; type: biochemical, Murine; conditions: SDA as substrate
# Method: as §1, §2
# [6] = target: Ornithine decarboxylase (Mus musculus, UniProt P00860); test: Ornithine decarboxylase inhibition; type: biochemical; conditions: Figure 10
# Ornithine decarboxylase, sequence (P00860 whole entry): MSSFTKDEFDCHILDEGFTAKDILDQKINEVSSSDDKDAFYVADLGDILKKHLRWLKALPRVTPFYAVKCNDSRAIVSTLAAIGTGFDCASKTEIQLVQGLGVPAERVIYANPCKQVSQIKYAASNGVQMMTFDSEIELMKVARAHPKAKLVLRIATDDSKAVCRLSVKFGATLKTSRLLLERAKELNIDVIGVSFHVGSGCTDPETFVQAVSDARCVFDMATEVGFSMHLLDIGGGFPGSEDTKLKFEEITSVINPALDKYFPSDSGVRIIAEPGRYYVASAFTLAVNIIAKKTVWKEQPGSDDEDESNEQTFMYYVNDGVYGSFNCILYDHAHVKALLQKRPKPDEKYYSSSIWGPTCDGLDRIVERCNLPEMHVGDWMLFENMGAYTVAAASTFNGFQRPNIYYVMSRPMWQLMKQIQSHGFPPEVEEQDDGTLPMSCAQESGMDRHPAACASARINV
# From the text: The figure illustrates the comparative profile of the inhibition of key regulatory enzymes of polyamine synthesis by SDA, its analogue, butyl dialdehyde (BDA), difluoromethyl orinithine (DFMO) and methyl glyoxal bis (guanylhydrazone) (MGBG).
# [7] = tested on: Swiss Webster mice; test: Acute toxicity, intraperitoneal; type: in vivo
# Method: Two pairs of Swiss Webster mice were injected intraperitoneally at 200 mg and 400 mg/kg respectively and observed for toxic effects. Control groups were injected with control preparation. Two weeks after dosing, animals were necropsied and organs were examined for abnormalities.
# Two pairs of Swiss Webster mice were injected intraperitoneally at 200 mg and 400 mg/kg for toxic effects.
smiles,measurement,setting,value
"O=CCCNCCCCNCCC=O [SDA, NN′-Bis-(3-propionaldehyde)-1-4-diaminobutane]",Km,"[1]; NAD, ± SEM, 3-4 experiments",41.6 µM
same,Specific (activity of ALDH),[1]; propionaldehyde 1.0 mM,6.8 ± 1.6 mU/mg Protein
same,effect of DEAB pretreatment on cytotoxicity of SDA,[2]; DEAB (20 µM) pretreatment,little or no effect
same,IC50,"[2]; Mus musculus, L1210/0, [³H]-thymidine incorporation, read-out: mean IC₅₀",4660 nM
same,sensitivity of L1210/0 cells relative to L1210/CPA cells,[2]; proliferation assays,2 fold
same,susceptibility of spleen cells to suppression compared with bone marrow cells,"[3]; 1 hour incubation, Figure 2",much more susceptible to suppression
same,effect of addition of DEAB on the potency of SDA,[3]; DEAB (20 µM),no significant effect
same,IC50,"[3]; Mus musculus, T-cell, cells treated 30 min at 37°C, washed, cultured with Concanavalin A for 3 days, Figure 8, read-out: IC₅₀",700 nM
same,IC100,"[3]; Mus musculus, T-cell, read-out: SDA treatment that abolished Con A-induced murine spleen cell proliferation",8 to 12 µM
same,suppression of BFU-E and CFU-GM colonies,[4]; 50 µM,almost total suppression
same,sensitivity of myeloid colony forming cells after DEAB pretreatment,"[4]; SDA 10-25 µM, DEAB pretreatment",further potentiated the sensitivity
same,enzyme activity in L1210/0 cells,[5],did not exhibit any detectable enzyme activity
same,inhibition of ODC (in words),[6],inhibited both of the key enzymes
same,acute signs (squinting and writhing),[7]; 200 mg and 400 mg/kg intraperitoneally,acutely irritating
same,toxic effects,[7]; 200 mg/kg intraperitoneally,no other toxic effect
same,toxic effects,[7]; 400 mg/kg intraperitoneally,abdominal or whole body edema for five days
same,necropsy findings,"[7]; 400 mg/kg, 14 days after injection",a mildly distended abdomen and scab formation at the injection site
same,lethal dose (not lethal up to),"[7]; mouse, in vivo, ip",> 400 mg/kg
